Assay [1] deals with antibody-induced male BALB/c arthritic mice. The assay can be described thus: Monoclonal-antibody induced arthritis (CAIA). The class given is in vivo. To be noted: 4, 7.5, 15 mg/kg PO, Day 4, 6, 8, 10. As for the experimental part:
The health status of the animals was examined on arrival. Only animals in good health were acclimatized to laboratory conditions and were used in the study. Animals were provided ad libitum a commercial rodent diet and free access to drinking water, supplied to each cage via polyethylene bottles with stainless steel sipper tubes. Automatically controlled environmental conditions were set to maintain temperature at 20-24° C. with relative humidity (RH) of 30-70%, a 12:12 hour light:dark cycle and 10-30 air changes/hr in the study room Temperature, RH and light cycle were monitored daily by the control computer. Animals were given a unique animal identification number and on Day 0 of the study each animal received a tail vein injection of antibody cocktail (200 uL of 10 mg/mL). The antibody cocktail was supplied by MD Biosciences (Catalog #: CIA-MAB-50). On day 3, post the single mAb administration, all animals were subjected to LPS (200 uL of 0.5 mg/mL) administration by a single intraperitoneal (IP) injection. […]
Animals found in a moribund condition, animals with broken skin on an arthritic paw, or with a greater than a 20% decrease in body weight and animals showing severe pain and enduring signs of severe distress were humanely euthanized. Severe pain or distress was assessed on a case by case basis by experienced animal technicians. […]

Assay [2] relates to PMA-induced male BALB/c psoriatic mice. In kind it is in vivo. To be noted: 10 mg/kg oral, M-W-F. As for the experimental part: BALB/c mice were housed in individually ventilated cages in a controlled environment (temperature 22±1° C., humidity 70±5%, and 12 h light/12 h dark cycle) in the animal facility. The mice had access to commercially available feed pellets and UV-treated potable water ad libitum. 4 mice were housed per individually ventilated cage. Each animal in the cage was identified by a tail. 8 mice per group mice were randomized into different treatment groups according to body weight. Following randomization the mean body weight for all groups was equivalent. Study design was Group 1: Naïve, 1% DMSO vehicle (10-30 ul, topical once daily), Group 2: PMA, 1% DMSO vehicle (10-30 ul, topical once daily), Group 3: PMA, 1-4 10 mg/kg in PVP/Pluronics (oral, M-W-F; Day 1-Day 3-Day 5-Day 7), Group 4: PMA, 0.1% betamethasone—25 mg (reference standard) (topical once daily)
4 ug Phorbol 12-myristate 13-acetate (PMA) in 20 uL of acetone was applied every day to mouse ears. Starting from Day 2, PMA-induction of dermal inflammation/psoriasis manifested with increases in clinical disease activity index associated with increased thickness of ear, scaling of ear-skin, and folding of ear-skin. The following parameters were evaluated: (i) the thickness of the ear, (ii) scaling on the skin of ear. This will be based on a scoring index—0, no scaling; 1, mild scaling; 2, moderate scaling; 3, severe scaling. […]

The subject of the next assay is BT-549. The assay is described as follows: Cell proliferation assay, BT-549. The class given is cell-based. The following applies: Homo sapiens; BT-549, type BaB, 72 h. As for the experimental part: (§1) The cells were seeded at 5×10^3 to 1.5×10^4 cells (depending on cell type) in each well of a 96-well plate in 100 μL of fresh culture medium and adherent cells were allowed to attach overnight. The stock solutions of the compounds were diluted in cell culture medium to obtain eight concentrations of each drug, ranging from 1 nM to 30 μM and DMSO at less than 1% v/v was used as a negative control. The resulting drug solutions were transferred onto the cells. After 72 h of treatment, 20 μl of CellTiter 96® AQueous reagent was added into each well of the 96-well assay plates and the plate was incubated at 37° C. for 1-4 hours in a humidified, 5% CO2 atmosphere. Then the absorbance of each well was recorded at 490 nm using a 96-well plate reader. In most cases, the assay was performed in triplicate and the results were presented as half maximal inhibitory concentration (IC50).

Another assay has as its system MCF10A. The assay can be described thus: Cell proliferation assay, MCF10A. In kind it is cell-based. The following applies: Homo sapiens, MCF-10A, type BaB, 72 h. As for the experimental part:
as §1

Another assay concerns HCC-1143. The assay can be described thus: Cell proliferation assay, HCC-1143. The class given is cell-based. The following applies: Homo sapiens, HCC1143; HCC-1143, type BaA, 72 h. As for the experimental part:
as §1

A further assay deals with HS578T. The assay can be described thus: Cell proliferation assay, HS578T. The class given is cell-based. The following applies: Homo sapiens, Hs-578T, type BaB, 72 h. As for the experimental part:
as §1

In the next assay the test system is DU4475 luminal BC cells. The assay can be described thus: Apoptosis marker immunoblot, DU4475. The class given is cell-based. To be noted: DU4475, 0 to 10 μM, 24 hours. As for the experimental part:
MDA-MB-468 TNBC, DU4475 and HS578T TNBC cells were exposed to concentrations of Compound 1-3 ranging from 0 to 10 μM for 24 hours. After 24 hours, whole protein cell extracts were run on immunoblots and were exposed to antibodies against the proteins indicated in FIGS. 2A-2C.

A further assay deals with MDA-MB-231 cells. The assay can be described thus: Long-term growth assay, MDA-MB-231. In kind it is cell-based. The following applies: MDA-MB-231, 1 μM, 10 days, crystal violet. The source says: At the end of the assay, media was removed from the cells and the remaining cells were stained with crystal violet.
Another assay has as its system BT-20 TNBC Basal B cells. The assay is described as follows: Nuclear localization of FOXO3a and IκB, BT-20. The class given is cell-based. To be noted: BT-20, 1 μM, 24 hours. As for the experimental part: MDA-MB-468 TNBC Basal A and BT-20 TNBC Basal B cells were exposed to DMSO or 1 μM Compound 1-3 for 24 hours and then stained for FOXO3a or IκB with or without DAPI nuclear stain. The stained cells were examined for nuclear localization.

A further assay deals with MDA-MB-468 cells. The assay is described as follows: Anti-apoptosis and cell cycle proteins immunoblot, MDA-MB-468. In kind it is cell-based. To be noted: MDA-MB-468, increasing concentrations, 24 hours.

Where a name gives a salt, the structure may show the parent alone.

Take `O=C(/C=C\n1cnc(-c2cc(C(F)(F)F)cc(C(F)(F)F)c2)n1)NNc1ccccn1` [Compound I-4, (Z)-3-(3-(3,5-bis(trifluoromethyl)phenyl)-1H-1,2,4-triazol-1-yl)-N′-(pyridin-2-yl)acrylohydrazide hydrochloride]: the “mean body weight (rate of weight gain)” value in [1] (compared to vehicle or dexamethasone) is on record as “increased the rate of weight gain”. The “mean total paw clinical arthritic score” value in assay [1] (compared with vehicle) is reported as “significantly decreased the total score”. The “efficacy relative to positive control betamethasone” value in assay [2] is listed as “comparable to positive control betamethasone”. For the same compound, the mean ear thickness result in assay [2] (compared to vehicle) is “reduced mean ear thickness in a statistically significant manner”.
As for `O=C(/C=C\n1cnc(-c2cc(C(F)(F)F)cc(C(F)(F)F)c2)n1)NNc1cnccn1` [Compound I-3, (Z)-3-(3-(3,5-bis(trifluoromethyl)phenyl)-1H-1,2,4-triazol-1-yl)-N′-(pyrazin-2-yl)acrylohydrazide], the IC50 came out at 0.02 µM in the assay with BT-549, 0.18 µM in the assay on MCF10A, 0.6 µM with HCC-1143 and 1.5 µM in the assay with HS578T. Besides, in the assay with DU4475 luminal BC cells, the “apoptosis (PARP, caspase 3, cleaved PARP, cleaved caspase 3)” value is “induces apoptosis”. In addition, in the assay on MDA-MB-231 cells, the long-term growth entry is recorded as “inhibited the long-term growth”. In addition, the “localization of FOXO3a and IκB” value in the assay with BT-20 TNBC Basal B cells is “both FOXO3a and IκB were localized in the cell nucleus”. Moreover, the MCL-1 protein level entry in the assay on MDA-MB-468 cells was “a reduction in MCL-1 is observed”.

The record behind these values is US12291508B2, “Hydrazide containing nuclear transport modulators and uses thereof” (Karyopharm Therapeutics Inc., priority 2011, dated 2025).
